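1) Cells in 96-well plates. 2) Compound, 48 h, 5 concentrations. 3) Linear interpolation between surrounding doses. 4) Unreached endpoint = highest concentration. Abbreviation: GI50, concentration required for 50% inhibition of growth.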 Active and inactive are the calls of the source. No stated cut-off is given here; in the data, active = GI50 up to about 1.1 µM and inactive = higher.
Tests used:
Assay in all cases: DTP human tumour cell line panel, 48 h
[1] = test system: RXF 393
[2] = test system: SF-539
[3] = test system: UACC-257
[4] = test system: OVCAR-3
[5] = test system: RPMI-8226
[6] = test system: HCT-116
[7] = test system: OVCAR-8
[8] = test system: DMS-114
[9] = test system: SN12C
[10] = test system: SF-268
[11] = test system: SK-MEL-2
[12] = test system: SK-MEL-5
[13] = test system: HCC 2998
[14] = test system: 786-0
[15] = test system: NCI-H460
[16] = test system: SK-OV-3
[17] = test system: Malme-3M
[18] = test system: A498
[19] = test system: NCI-H522
[20] = test system: KM-20L2
[21] = test system: MOLT-4
[22] = test system: HL-60
[23] = test system: SNB-78
[24] = test system: EKVX
[25] = test system: HOP-62
[26] = test system: TK-10
[27] = test system: SW-620
[28] = test system: ACHN
[29] = test system: XF498
[30] = test system: U-251
[31] = test system: IGROV-1
[32] = test system: SF-295
[33] = test system: OVCAR-5
[34] = test system: NCI-H226
[35] = test system: CAKI-1
[36] = test system: A549
[37] = test system: M19-MEL
[38] = test system: M14
[39] = test system: NCI-H23
[40] = test system: COLO 205
[41] = test system: SK-MEL-28
[42] = test system: OVCAR-4
[43] = test system: K562
[44] = test system: SNB-19
[45] = test system: KM12
[46] = test system: SNB-75
[47] = test system: CCRF-CEM
[48] = test system: HT-29
[49] = test system: HOP-92
[50] = test system: HCT-15
[51] = test system: DMS-273
[52] = test system: UACC-62
[53] = test system: DLD-1
[54] = test system: SR
[55] = test system: LXFL 529
[56] = test system: LOX IMVI
[57] = test system: UO-31
[58] = test system: HOP-18

Measured: GI50

O=C(c1ccccc1)c1c(-c2ccccc2)sc2nc3ccccc3nc12
> 100 µM: [50]
inactive: [1] 45.4 µM | [2] 47.9 µM | [3] > 100 µM | [4] > 100 µM | [5] > 100 µM | [6] > 100 µM | [7] > 100 µM | [8] > 100 µM | [9] > 100 µM | [10] > 100 µM | [11] > 100 µM | [12] 80.9 µM | [13] > 100 µM | [14] 38.1 µM | [15] > 100 µM | [16] > 100 µM | [17] 92.3 µM | [18] > 100 µM | [19] > 100 µM | [20] > 100 µM | [21] > 100 µM | [22] > 100 µM | [23] 74 µM | [24] > 100 µM | [25] 34.8 µM | [26] > 100 µM | [27] > 100 µM | [28] > 100 µM | [29] > 100 µM | [30] > 100 µM | [31] > 100 µM | [32] 52.7 µM | [33] > 100 µM | [34] 20.3 µM | [35] > 100 µM | [36] > 100 µM | [37] > 100 µM | [38] > 100 µM | [39] > 100 µM | [40] > 100 µM | [41] > 100 µM | [42] 37.8 µM | [43] > 100 µM | [44] 55 µM | [45] > 100 µM | [46] 32.8 µM | [47] > 100 µM | [48] > 100 µM | [49] 16.4 µM | [51] > 100 µM | [52] > 100 µM

COc1cc([C@H]2c3cc4c(cc3[C@H](NCc3ccc([N+](=O)[O-])cc3)C3COC(=O)[C@H]32)OCO4)cc(OC)c1O (some centres not stated)
active: [2] 0.745 µM | [5] 0.938 µM | [9] 0.807 µM | [14] 0.877 µM | [15] < 0.0282 µM | [18] 0.378 µM | [21] 0.106 µM | [22] 1.02 µM | [25] 0.26 µM | [27] 1.03 µM | [54] 0.0333 µM | [28] 0.378 µM | [30] 0.655 µM | [32] 0.681 µM | [34] 0.324 µM | [35] 0.424 µM | [36] 0.213 µM | [39] 0.398 µM | [44] 1.01 µM | [56] 0.92 µM | [47] 0.251 µM | [51] 0.661 µM | [52] 1.07 µM
1.61 µM: [50]
inactive: [1] 3.37 µM | [3] 7.96 µM | [4] 3.08 µM | [6] 2.36 µM | [7] 1.63 µM | [8] 2.62 µM | [10] 1.47 µM | [11] 4.38 µM | [12] 2.29 µM | [13] 1.23 µM | [16] 2.24 µM | [17] 1.56 µM | [20] 2.48 µM | [23] 5.94 µM | [24] 3.18 µM | [26] 1.96 µM | [53] 2.7 µM | [29] 3.32 µM | [31] 12.3 µM | [33] 2.89 µM | [55] 5.07 µM | [37] 3.85 µM | [38] 1.97 µM | [40] 2.52 µM | [41] 5.45 µM | [42] 72.8 µM | [43] 3.18 µM | [45] 2.44 µM | [46] 1.45 µM | [48] 2.17 µM | [49] 2.81 µM | [57] 1.79 µM

CCOc1ccc2[nH]c3c(C)c4cc[n+](C)cc4c(C)c3c2c1
active: [2] 0.65 µM | [9] 0.279 µM | [10] 0.271 µM | [14] 0.255 µM | [19] 1.11 µM | [23] 0.662 µM | [30] 0.228 µM | [32] 0.25 µM | [34] 0.451 µM | [55] 0.348 µM | [39] 0.838 µM
inactive: [1] 8.71 µM | [3] 4.25 µM | [4] 3.93 µM | [5] 18.3 µM | [6] 3 µM | [58] 4.03 µM | [11] 2.42 µM | [12] 1.55 µM | [13] 3.27 µM | [15] 1.89 µM | [16] 2.92 µM | [20] 4.95 µM | [22] 7.85 µM | [24] 4.24 µM | [53] 1.66 µM | [27] 2.05 µM | [31] 2.25 µM | [36] 1.95 µM | [38] 8.41 µM | [41] 3.1 µM | [42] 3.61 µM | [43] 2.1 µM | [45] 2.4 µM | [47] 2.88 µM | [48] 3.99 µM | [49] 2.5 µM | [57] 20.9 µM | [52] 2.77 µM

CC[S+](C)c1ccc(-c2c3nc(c(-c4ccc([S+](C)CC)cc4)c4ccc([nH]4)c(-c4ccc([S+](C)CC)cc4)c4nc(c(-c5ccc([S+](C)CC)cc5)c5ccc2[nH]5)C=C4)C=C3)cc1.[O-][Cl+3]([O-])([O-])[O-].[O-][Cl+3]([O-])([O-])[O-].[O-][Cl+3]([O-])([O-])[O-].[O-][Cl+3]([O-])([O-])[O-] (configuration not stated)
19.3 µM: [50]
inactive: [1] 13.6 µM | [2] 27.4 µM | [3] 31 µM | [4] 56.9 µM | [5] 7.78 µM | [6] 27.9 µM | [7] 22.9 µM | [9] 16.8 µM | [10] 21.8 µM | [11] 18.2 µM | [12] 24.7 µM | [14] 27.7 µM | [15] 22 µM | [16] 30.4 µM | [17] 4.4 µM | [18] 36.6 µM | [19] 29.6 µM | [20] 14.1 µM | [21] 20 µM | [22] 6.41 µM | [23] 56.2 µM | [24] 11 µM | [25] 30.1 µM | [27] 28.3 µM | [54] 18.5 µM | [28] 29.6 µM | [30] 16.6 µM | [32] 28.7 µM | [33] 21.7 µM | [55] 10.1 µM | [35] 39.1 µM | [36] 18.5 µM | [37] 40.9 µM | [38] 24.9 µM | [39] 38.6 µM | [40] 35.9 µM | [41] 18.9 µM | [42] > 100 µM | [43] 13.9 µM | [44] 93.8 µM | [45] 20.3 µM | [46] 24.3 µM | [56] 11.3 µM | [47] 18.9 µM | [48] 29.2 µM | [51] 34.4 µM | [52] 12.9 µM
active: [29] 0.881 µM | [49] 0.649 µM
